Key:
Papain = target: T1, Papain (Carica papaya, UniProt P00784); experiment: Inhibitory activity against papain using HPLC assay
T1 sequence (P00784 whole entry): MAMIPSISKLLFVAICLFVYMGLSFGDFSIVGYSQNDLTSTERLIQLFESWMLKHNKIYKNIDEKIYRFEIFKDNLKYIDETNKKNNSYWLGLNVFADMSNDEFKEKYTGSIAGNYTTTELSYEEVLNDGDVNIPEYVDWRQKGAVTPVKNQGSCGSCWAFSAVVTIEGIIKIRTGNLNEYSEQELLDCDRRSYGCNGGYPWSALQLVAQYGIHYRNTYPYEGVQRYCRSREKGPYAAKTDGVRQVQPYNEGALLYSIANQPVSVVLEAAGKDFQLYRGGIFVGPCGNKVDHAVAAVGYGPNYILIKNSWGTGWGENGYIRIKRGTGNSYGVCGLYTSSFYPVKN

Papain (Carica papaya) = target: T2, Papain (Carica papaya) (UniProt P00784); experiment: Percent inhibition against papain; conditions: concentration not given here
T2 sequence (whole entry): T1 sequence (P00784 whole entry)

| Compound | IC50 (Papain) [µM] | inhibition (Papain (Carica papaya)) [%] |
| --- | --- | --- |
| COC1=CC(=O)c2c(cc(C)c(C(C)=O)c2OC(C)=O)C1=O | 33 |  |
| COC1=CC(=O)c2c(cc(C)c(C(C)=O)c2O)C1=O | 23 |  |
| O=C1C=CC(=O)c2c1ccc1c2ccc2ccccc21 | 18 | 45 |
| O=C1C=Cc2ccccc2C1=O [1,2-NAPHTHOQUINONE] | 120 | 67 |
| O=C1C(=O)c2ccccc2-c2ccccc21 [9,10-PHENANTHRENEQUINONE] | 91 | 24 |
| O=C1C=CC(=O)c2ccccc21 [NAPHTHOQUINONE] | 29 |  |
